Reference: ChEMBL document CHEMBL1136816, “Synthesis and evaluation of ether and halogenated derivatives of mannopeptimycin glycopeptide antibiotics” (2003)
≈ marks a conversion by molar mass, not a printed value. Values belong to the compound of their own block, whether it stands above or below them.

Experiments:
Type in all cases: functional
Enterococcus sp. [1] = experiment: In vitro minimum inhibitory concentration against Enterococcus species; 8-16
Streptococcus sp. [2] = experiment: In vitro minimum inhibitory concentration against Streptococcus species; 0.5-2
Staphylococcus aureus [3] = experiment: In vitro minimum inhibitory concentration against Staphylococcus aureus; 4-8
Staphylococcus aureus [4] = experiment: In vitro minimum inhibitory concentration against Staphylococcus aureus
Streptococcus sp. [5] = experiment: In vitro minimum inhibitory concentration against Streptococcus species
Enterococcus sp. [6] = experiment: In vitro minimum inhibitory concentration against Enterococcus species
Staphylococcus aureus [7] = experiment: In vitro minimum inhibitory concentration against Staphylococcus aureus; 1-2
Streptococcus sp. [8] = experiment: In vitro minimum inhibitory concentration against Streptococcus species; </=0.06-5
Enterococcus sp. [9] = experiment: In vitro minimum inhibitory concentration against Enterococcus species 2-8
Enterococcus sp. [10] = experiment: In vitro minimum inhibitory concentration against Enterococcus species; 2-4
Streptococcus sp. [11] = experiment: In vitro minimum inhibitory concentration against Streptococcus species; 0.12-0.5
Staphylococcus aureus [12] = experiment: In vitro minimum inhibitory concentration against Staphylococcus aureus; 2-4
Staphylococcus aureus [13] = experiment: In vitro minimum inhibitory concentration against Staphylococcus aureus; 32-64
Streptococcus sp. [14] = experiment: In vitro minimum inhibitory concentration against Streptococcus species; 8-32
Enterococcus sp. [15] = experiment: In vitro minimum inhibitory concentration against Enterococcus species; 32->64
Streptococcus sp. [16] = experiment: In vitro minimum inhibitory concentration against Streptococcus species; </=0.06-2
Enterococcus sp. [17] = experiment: In vitro minimum inhibitory concentration against Enterococcus species; 4-16
Enterococcus sp. [18] = experiment: In vitro minimum inhibitory concentration against Enterococcus species; 0.5->64

SMILES: C[C@@H](c1ccccc1)[C@@H]1NC(=O)CNC(=O)[C@H](CO)NC(=O)[C@@H]([C@@H](O)[C@@H]2CN=C(N)N2[C@H]2O[C@H](CO)[C@@H](O)[C@H](O)[C@@H]2O)NC(=O)[C@H]([C@@H](O)[C@@H]2CN=C(N)N2)NC(=O)[C@@H](Cc2ccc(O[C@H]3O[C@H](CO)[C@@H](O[C@H]4O[C@H](COC/C=C/c5ccccc5)[C@@H](O)[C@H](O)[C@@H]4O)[C@H](O)[C@@H]3O)cc2)NC1=O
MIC (Enterococcus sp. [1]): 8 µg/mL (≈ 5.67 µM) | MIC (Streptococcus sp. [2]): 0.5 µg/mL (≈ 0.354 µM) | MIC (Staphylococcus aureus [3]): 4 µg/mL (≈ 2.83 µM)

SMILES: C[C@@H](c1ccccc1)[C@@H]1NC(=O)CNC(=O)[C@H](CO)NC(=O)[C@@H]([C@@H](O)[C@@H]2CN=C(N)N2[C@H]2O[C@H](CO)[C@@H](O)[C@H](O)[C@@H]2O)NC(=O)[C@H]([C@@H](O)[C@@H]2CN=C(N)N2)NC(=O)[C@@H](Cc2ccc(O[C@H]3O[C@H](CO)[C@@H](O[C@H]4O[C@H](CO)[C@@H](O)[C@H](O)[C@@H]4O)[C@H](O)[C@@H]3O)c(I)c2)NC1=O
MIC (Staphylococcus aureus [4]): > 128 µg/mL | MIC (Streptococcus sp. [5]): > 128 µg/mL | MIC (Enterococcus sp. [6]): > 128 µg/mL

SMILES: C[C@@H](c1ccccc1)[C@@H]1NC(=O)CNC(=O)[C@H](CO)NC(=O)[C@@H]([C@@H](O)[C@@H]2CN=C(N)N2[C@H]2O[C@H](CO)[C@@H](O)[C@H](O)[C@@H]2O)NC(=O)[C@H]([C@@H](O)[C@@H]2CN=C(N)N2)NC(=O)[C@@H](Cc2ccc(O[C@H]3O[C@H](CO)[C@@H](O[C@H]4O[C@H](CO)[C@@H](OCC=C(c5ccccc5)c5ccccc5)[C@H](O)[C@@H]4O)[C@H](O)[C@@H]3O)cc2)NC1=O
MIC (Enterococcus sp. [10]): 2 µg/mL (≈ 1.34 µM) | MIC (Streptococcus sp. [5]): ≤ 0.06 µg/mL | MIC (Staphylococcus aureus [12]): 2 µg/mL (≈ 1.34 µM)

SMILES: COc1ccc(CO[C@H]2[C@H](O)[C@H](O)[C@@H](O[C@H]3[C@H](O)[C@H](O)[C@@H](Oc4ccc(C[C@H]5NC(=O)[C@H]([C@@H](C)c6ccccc6)NC(=O)CNC(=O)[C@H](CO)NC(=O)[C@@H]([C@@H](O)[C@@H]6CN=C(N)N6[C@H]6O[C@H](CO)[C@@H](O)[C@H](O)[C@@H]6O)NC(=O)[C@H]([C@@H](O)[C@@H]6CN=C(N)N6)NC5=O)cc4)O[C@@H]3CO)O[C@@H]2CO)cc1OCc1ccccc1
MIC (Streptococcus sp. [16]): ≤ 0.06 µg/mL | MIC (Enterococcus sp. [17]): 4 µg/mL (≈ 2.63 µM) | MIC (Staphylococcus aureus [12]): 2 µg/mL (≈ 1.31 µM)

SMILES: CN[C@H](CC(C)C)C(=O)N[C@H]1C(=O)N[C@@H](CC(N)=O)C(=O)N[C@H]2C(=O)N[C@H]3C(=O)N[C@H](C(=O)N[C@H](C(=O)O)c4cc(O)cc(O)c4-c4cc3ccc4O)[C@H](O)c3ccc(c(Cl)c3)Oc3cc2cc(c3O[C@@H]2O[C@H](CO)[C@@H](O)[C@H](O)[C@H]2O[C@H]2C[C@](C)(N)[C@H](O)[C@H](C)O2)Oc2ccc(cc2Cl)[C@H]1O [VANCOMYCIN]
MIC (Enterococcus sp. [18]): 0.5 µg/mL (≈ 0.345 µM) | MIC (Streptococcus sp. [11]): 0.12 µg/mL (≈ 0.0828 µM)

Now from value to compound:

MIC (Staphylococcus aureus [7]): 1 µg/mL (≈ 0.682 µM) | MIC (Streptococcus sp. [8]): ≤ 0.06 µg/mL | MIC (Enterococcus sp. [9]): 2 µg/mL (≈ 1.36 µM)
SMILES: COc1ccc2cc(COC[C@H]3O[C@H](O[C@H]4[C@H](O)[C@H](O)[C@@H](Oc5ccc(C[C@H]6NC(=O)[C@H]([C@@H](C)c7ccccc7)NC(=O)CNC(=O)[C@H](CO)NC(=O)C(C(O)[C@@H]7CN=C(N)N7[C@H]7O[C@H](CO)[C@@H](O)[C@H](O)[C@@H]7O)NC(=O)[C@H]([C@@H](O)[C@@H]7CN=C(N)N7)NC6=O)cc5)O[C@@H]4CO)[C@@H](O)[C@@H](O)[C@@H]3O)ccc2c1 (stereo partly specified)

MIC (Enterococcus sp. [10]): 2 µg/mL (≈ 1.39 µM) | MIC (Staphylococcus aureus [7]): 1 µg/mL (≈ 0.693 µM) | MIC (Streptococcus sp. [5]): ≤ 0.06 µg/mL
SMILES: CCCOc1ccc(COC[C@H]2O[C@H](O[C@H]3[C@H](O)[C@H](O)[C@@H](Oc4ccc(C[C@H]5NC(=O)[C@H]([C@@H](C)c6ccccc6)NC(=O)CNC(=O)[C@H](CO)NC(=O)[C@@H]([C@@H](O)[C@@H]6CN=C(N)N6[C@H]6O[C@H](CO)[C@@H](O)[C@H](O)[C@@H]6O)NC(=O)[C@H]([C@@H](O)[C@@H]6CN=C(N)N6)NC5=O)cc4)O[C@@H]3CO)[C@@H](O)[C@@H](O)[C@@H]2O)cc1

MIC (Enterococcus sp. [10]): 2 µg/mL (≈ 1.43 µM) | MIC (Staphylococcus aureus [4]): 2 µg/mL (≈ 1.43 µM) | MIC (Streptococcus sp. [11]): 0.12 µg/mL (≈ 0.0857 µM)
SMILES: Cc1ccc(COC[C@H]2O[C@H](O[C@H]3[C@H](O)[C@H](O)[C@@H](Oc4ccc(C[C@H]5NC(=O)[C@H]([C@@H](C)c6ccccc6)NC(=O)CNC(=O)[C@H](CO)NC(=O)[C@@H]([C@@H](O)[C@@H]6CN=C(N)N6[C@H]6O[C@H](CO)[C@@H](O)[C@H](O)[C@@H]6O)NC(=O)[C@H]([C@@H](O)[C@@H]6CN=C(N)N6)NC5=O)cc4)O[C@@H]3CO)[C@@H](O)[C@@H](O)[C@@H]2O)cc1

MIC (Staphylococcus aureus [13]): 32 µg/mL (≈ 22 µM) | MIC (Streptococcus sp. [14]): 8 µg/mL (≈ 5.5 µM) | MIC (Enterococcus sp. [15]): 32 µg/mL (≈ 22 µM)
SMILES: C[C@@H](c1ccccc1)[C@@H]1NC(=O)CNC(=O)[C@H](CO)NC(=O)[C@@H]([C@@H](O)[C@@H]2CN=C(N)N2[C@H]2O[C@H](CO)[C@@H](O)[C@H](O)[C@@H]2O)NC(=O)[C@H]([C@@H](O)[C@@H]2CN=C(N)N2)NC(=O)[C@@H](Cc2ccc(O[C@H]3O[C@H](CO)[C@@H](O[C@H]4O[C@H](COC/C=C/c5ccc(N(C)C)cc5)[C@@H](O)[C@H](O)[C@@H]4O)[C@H](O)[C@@H]3O)cc2)NC1=O
